Measurements as given in patent EP4603105A1, “PHARMACEUTICAL COMPOSITION CONTAINING CYCLIC COMPOUND HAVING SELECTIVE KRAS INHIBITORY EFFECT AGAINST HRAS AND NRAS” (CHUGAI SEIYAKU KABUSHIKI KAISHA, priority 2022, dated 2024).
*1 amine or outer side, *2 acyl side, *3 side chain or, on linkers, in order; H or OH if unused. Where a SMILES comes first, the peptide text is derived from it. Bridges are numbered along the chain shown (N, C = ends). [ ]: non-standard residue; d: D form. The star is where a group is joined. hPhe(3,5-F2-4-CF3) = N[C@@H](CCc1cc(F)c(C(F)(F)F)c(F)c1)C(=O)O; hPhe(3-Cl-4-CF3) = N[C@@H](CCc1ccc(C(F)(F)F)c(Cl)c1)C(=O)O; NPrPhe(4-CF3) = CCCN[C@@H](Cc1ccc(C(F)(F)F)cc1)C(=O)O; X40 = Cc1ccc(C[C@@H](C(=O)[*:2])N(CC(C)C)[*:1])cc1; NEtPhe(4-Me) = CCN[C@@H](Cc1ccc(C)cc1)C(=O)O; NMeAbu(4,4,4-F3) = CN[C@@H](CC(F)(F)F)C(=O)O; X16 = O=C([C@@H](N[*:1])C1CC(F)(F)C1)[*:2]; NMeGly(cPent) = CN[C@H](C(=O)O)C1CCCC1; Hyp = O=C(O)[C@@H]1C[C@@H](O)CN1; NMeF = CN[C@@H](Cc1ccccc1)C(=O)O; NMeD = CN[C@@H](CC(=O)O)C(=O)O; NMeL = CN[C@@H](CC(C)C)C(=O)O; Morpholide = C1CN(*)CCO1; NAllylGly = C=CCNCC(=O)O; NMeA = CN[C@@H](C)C(=O)O; Ac5c = NC1(C(=O)O)CCCC1; Aze = O=C(O)[C@@H]1CCN1; Ac4c = NC1(C(=O)O)CCC1; Sar = CNCC(=O)O

Experiments:
[1] = molecular target: GDP-bound NRAS wild-type protein (Homo sapiens, UniProt P01111); experiment: Binding to NRAS by surface plasmon resonance (SPR), KD and KD ratio to KRAS
GDP-bound NRAS wild-type protein, sequence (P01111 whole entry): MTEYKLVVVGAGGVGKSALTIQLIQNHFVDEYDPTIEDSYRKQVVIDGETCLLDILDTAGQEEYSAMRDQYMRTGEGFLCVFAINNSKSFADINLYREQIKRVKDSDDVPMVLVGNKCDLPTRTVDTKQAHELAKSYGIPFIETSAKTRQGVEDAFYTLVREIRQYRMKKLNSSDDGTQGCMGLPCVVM
How it was run: (§1)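 Measured at 30°C: SPR with GDP-loaded, E. coli-expressed biotin-Avi RAS captured (~100–300 RU), ascending 75 s compound injections, HBS pH 7.4 with GDP, MgCl2, 4% DMSO. KD from 1:1 fit.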

[2] = molecular target: HRAS wild-type protein (Homo sapiens, UniProt P01112); experiment: Binding to HRAS by surface plasmon resonance (SPR), KD and KD ratio to KRAS
HRAS wild-type protein, sequence (P01112 whole entry): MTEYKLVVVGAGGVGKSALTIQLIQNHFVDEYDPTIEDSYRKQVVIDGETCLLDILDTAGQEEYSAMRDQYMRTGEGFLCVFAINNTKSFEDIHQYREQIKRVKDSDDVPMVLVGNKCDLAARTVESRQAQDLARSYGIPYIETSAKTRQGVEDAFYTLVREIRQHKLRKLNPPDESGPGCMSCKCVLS
How it was run: as §1

[3] = tested on: human lung cancer strain NCI-H441; type: cell-based
How it was run: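 Signal came from […] measured per well once the reagent was added. Beforehand, cells were cultured at 37°C and 5% carbon dioxide on a compound series serially diluted in dimethyl sulfoxide.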

[4] = ratio of KD for GDP-bound NRAS wild-type protein to KD for KRAS
[5] = ratio of KD for HRAS wild-type protein to KD for KRAS
[6] = ratio of the KD value with respect to GDP-bound NRAS wild-type protein to the KD value with respect to KRAS
[7] = ratio of the KD value with respect to HRAS wild-type protein to the KD value with respect to KRAS

Row | IC50 [3] [nM] | SMILES | NRAS /KRAS [1, 4] | HRAS /KRAS [2, 5] | NRAS /KRAS ([1]; ratio of KD value for GDP-bound NRAS wild-type protein to KD value for KRAS (SPR)) | HRAS /KRAS ([2]; ratio of KD value for HRAS wild-type protein to KD value for KRAS (SPR)) | NRAS /KRAS [1, 6] | HRAS /KRAS [2, 7]
1 | 39.3 | CC[C@H](C)[C@@H]1NC(=O)[C@H](CC(C)C)N(C)C(=O)C[C@@H](C(=O)N2CCOCC2)N(C)C(=O)[C@H](C2CCCC2)N(C)C(=O)C2(CCCC2)NC(=O)[C@@H]2CCCN2C(=O)[C@H](CCc2ccc(C(F)(F)F)c(Cl)c2)NC(=O)CN(C)C(=O)[C@H](Cc2ccc(C)cc2)N(CC(C)C)C(=O)CN(C)C(=O)CN(C)C1=O [PP0063] ([NMeL]I[Sar][Sar][X40][Sar][hPhe(3-Cl-4-CF3)]P[Ac5c][NMeGly(cPent)][NMeD]-Morpholide; lactam N-11) | C (A compound having a KD ratio of 0.1 or more and less than 3 is denoted as C) | C (A compound having a KD ratio of 0.1 or more and less than 3 is denoted as C) |  |  |  | 
2 | 5.8 | CC[C@H](C)[C@@H]1NC(=O)[C@H](CC(C)C)N(C)C(=O)C[C@@H](C(=O)N2CCOCC2)N(C)C(=O)[C@H](C2CCCC2)N(C)C(=O)C2(CCCC2)NC(=O)[C@@H]2CCCN2C(=O)[C@H](CCc2ccc(C(F)(F)F)c(Cl)c2)NC(=O)CN(C)C(=O)[C@H](Cc2ccccc2)N(C)C(=O)[C@@H]2CCN2C(=O)[C@H](C)N(C)C1=O [PP0011] ([NMeL]I[NMeA][Aze][NMeF][Sar][hPhe(3-Cl-4-CF3)]P[Ac5c][NMeGly(cPent)][NMeD]-Morpholide; lactam N-11) | C (A compound having a KD ratio of 0.1 or more and less than 3 is denoted as C) | C (A compound having a KD ratio of 0.1 or more and less than 3 is denoted as C) |  |  |  | 
3 | 19.8 | C=CCN1CC(=O)N(C)CC(=O)N(CCC)[C@@H](Cc2ccc(C(F)(F)F)cc2)C(=O)N(C)CC(=O)N[C@@H](CCc2ccc(C(F)(F)F)c(Cl)c2)C(=O)N2CCC[C@H]2C(=O)NC2(CCCC2)C(=O)N(C)[C@@H](C2CCCC2)C(=O)N(C)[C@H](C(=O)N2CCOCC2)CC(=O)N(C)[C@@H](CC(C)C)C(=O)N[C@@H]([C@@H](C)CC)C1=O [PP0749] ([NMeL]I[NAllylGly][Sar][NPrPhe(4-CF3)][Sar][hPhe(3-Cl-4-CF3)]P[Ac5c][NMeGly(cPent)][NMeD]-Morpholide; lactam N-11) |  |  |  |  | B (a compound having 3 or more and less than 10 is denoted as B) | C (A compound having a KD ratio of 0.1 or more and less than 3 is denoted as C)

The remaining lines, values behind:

Row | SMILES | IC50 [3] [nM] | NRAS /KRAS [1, 4] | HRAS /KRAS [2, 5] | NRAS /KRAS ([1]; ratio of KD value for GDP-bound NRAS wild-type protein to KD value for KRAS (SPR)) | HRAS /KRAS ([2]; ratio of KD value for HRAS wild-type protein to KD value for KRAS (SPR)) | NRAS /KRAS [1, 6] | HRAS /KRAS [2, 7]
4 | CCCN1C(=O)CN(C)C(=O)CN(C)C(=O)[C@H](C2CC(F)(F)C2)NC(=O)[C@H](CC(C)C)N(C)C(=O)C[C@@H](C(=O)N2CCOCC2)N(C)C(=O)[C@H](C2CCCC2)N(C)C(=O)C2(CCCC2)NC(=O)[C@@H]2CCCN2C(=O)[C@H](CCc2cc(F)c(C(F)(F)F)c(F)c2)NC(=O)CN(C)C(=O)[C@@H]1Cc1ccc(C(F)(F)F)cc1 [PP0769] ([NMeL][X16][Sar][Sar][NPrPhe(4-CF3)][Sar][hPhe(3,5-F2-4-CF3)]P[Ac5c][NMeGly(cPent)][NMeD]-Morpholide; lactam N-11) | 43.3 | B (a compound having 3 or more and less than 10 is denoted as B) | C (A compound having a KD ratio of 0.1 or more and less than 3 is denoted as C) |  |  |  | 
5 | CC[C@H](C)[C@@H]1NC(=O)[C@H](CC(F)(F)F)N(C)C(=O)C[C@@H](C(=O)N2CCOCC2)N(C)C(=O)[C@H](C2CCCC2)N(C)C(=O)C2(CCCC2)NC(=O)[C@@H]2CCCN2C(=O)[C@H](CCc2ccc(C(F)(F)F)c(Cl)c2)NC(=O)CN(C)C(=O)[C@H](Cc2ccc(C)cc2)N(CC)C(=O)CN(C)C(=O)CN(C)C1=O [PP0032] ([NMeAbu(4,4,4-F3)]I[Sar][Sar][NEtPhe(4-Me)][Sar][hPhe(3-Cl-4-CF3)]P[Ac5c][NMeGly(cPent)][NMeD]-Morpholide; lactam N-11) | 26.9 | C (A compound having a KD ratio of 0.1 or more and less than 3 is denoted as C) | C (A compound having a KD ratio of 0.1 or more and less than 3 is denoted as C) |  |  |  | 
6 | CCO[C@@H]1C[C@H]2C(=O)NC3(CC(C)(C)C3)C(=O)N(C)[C@@H](C3CCCC3)C(=O)N(C)[C@H](C(=O)N(C)CC)CC(=O)N(C)[C@@H](CC(F)F)C(=O)N[C@@H]([C@@H](C)CC)C(=O)N(C)CC(=O)N(C)[C@H]3C/C=C\CCN(C3=O)[C@@H](Cc3ccc(C(F)(F)F)cc3)C(=O)N(C)CC(=O)N[C@@H](CCc3ccc(C(F)(F)F)c(OC)c3)C(=O)N2C1 [PP1655] | 1.6 |  |  | A (a compound having 10 or more and less than 20 is denoted as A) | A (a compound having 10 or more and less than 20 is denoted as A) |  | 
7 | CCCN1C(=O)CN(C)C(=O)[C@@H]2CCN2C(=O)[C@H]([C@@H](C)CC)NC(=O)[C@H](CC(C)C)N(C)C(=O)C[C@@H](C(=O)N2CCOCC2)N(C)C(=O)[C@H](C2CCCC2)N(C)C(=O)C2(CCC2)NC(=O)[C@@H]2C[C@@H](OCC)CN2C(=O)[C@H](CCc2ccc(C(F)(F)F)c(Cl)c2)NC(=O)CN(C)C(=O)[C@@H]1Cc1ccc(C(F)(F)F)cc1 [PP0405] ([NMeL]I[Aze][Sar][NPrPhe(4-CF3)][Sar][hPhe(3-Cl-4-CF3)][Hyp](Et)[Ac4c][NMeGly(cPent)][NMeD]-Morpholide; lactam N-11) | 14.3 |  |  |  |  | B (a compound having 3 or more and less than 10 is denoted as B) | C (A compound having a KD ratio of 0.1 or more and less than 3 is denoted as C)
